We go through 16 compounds from patent publication US7605168B2 (Plexxikon, Inc., priority 2004, dated 2009).

Structures are written as SMILES.

Experiment [1] has as its system TNF-α release from whole blood cultures stimulated with LPS. Nature of the experiment: IC50 by TNF alpha production upon stimulation of whole blood cultures with LPS. The format is cell-based. As to conditions: human whole blood (buffy coat) culture, 100 ng/ml LPS, 4 hours; read-out: h TNFα IC50. Here is the method:
Compounds were assayed to generate IC50 numbers based on the inhibition of TNF-α release from whole blood cultures, using the following assay protocol (see Table 5 for compounds tested and results). Inhibition of PDE4B results in the inhibition of TNF-α release by whole blood cultures stimulated with lipopolysaccharide (LPS). The measurement of TNF-α release was used to assess compounds as PDE4B inhibitors.
Compounds were provided in DMSO at 20 mM and 2 μl per well was added to one row of a dilution plate. Added 98 μl of RPMI 1640 media with 2.5% heat inactivated FBS to each well containing compound. The same media with 2% DMSO was prepared and 60 μl was added to each of the empty wells in the dilution plate. The compound was serially diluted 1:3 (30 μl to 60 μl of media) for a total of 8 concentrations per compound. Wells were also prepared with 50 μM roflumilast and piclamilast as 100% inhibition controls, and 2% DMSO in media was used as 0% inhibition control. A 20 μl aliquot of each sample was transferred to an assay plate in duplicate.
Human buffy coat was obtained from the Stanford Medical School Blood Center and diluted with 7 volumes of RPMI 1640 media with 1% penicillin/streptomycin and 2.5% heat inactivated FBS. A 160 μl aliquot of the diluted blood was added to each well of the assay plates, mixed and incubated for 1 hour at 37° C. in 5% CO2. LPS (Sigma catalog number L2637) that had been diluted to 1 mg/ml in PBS and stored as 20 μl aliquots at −20° C. was thawed and diluted 1000× to 1 μg/ml. A 20 μl aliquot of this was added to each sample (final concentration 100 ng/ml LPS) after the 1 hour incubation. A background sample was prepared without addition of LPS as well. The samples were mixed on a shaker for one minute at 900 RPM and incubated for 4 hours at 37° C. in 5% CO2. The plates were then put on a shaker for one minute at 900 RPM, followed by centrifuging at 100×g for 10 minutes, deceleration setting of 5. The top 75 μl of supernatant was carefully pipetted to a new plate and frozen at −20° C.
A 50 μl aliquot of incubation buffer (Biosource International Immunoassay Kit:Human TNF-α catalog number KHC3011) was added to each well of a plate coated with monoclonal antibody specific for hTNF-α (Biosource kit). The supernatant blood samples were thawed and a 50 μl aliquot along with 50 μl of diluent buffer (Biosource kit) were added to incubation buffer and the samples were incubated for 2 hours at room temperature. The samples were washed 4 times with 300 μl/well wash buffer (Biosource kit). A 100 μl aliquot of biotinylated anti-TNFalpha (Biosource kit) was added and the samples incubated for 1 hour at room temperature. The samples were washed 4 times with 300 μl/well wash buffer. A 100 μl aliquot of Streptavidin-HRP solution (BioSource kit) was added and the samples incubated for 30 minutes at room temperature. The samples were washed 4 times with 300 μl/well wash buffer. A 100 μl aliquot of Chromagen (Biosource kit) was added and the samples incubated in the dark for 30 minutes. A 100 μl aliquot of stop solution (2N H2SO4) was added to each sample and samples were read at 450 nm on a WallacVictor for 0.1 sec/well.

Experiment [2] addresses T1, PDE4B2: full-length human PDE4B2 isozyme (Homo sapiens, UniProt Q07343).
T1 construct: made in house; host or cells: baculovirus infected insect cells (pFastBacHT)
The experiment in a line: PDE4 IC50 determination by Scintillation Proximity Assay (SPA), full-length PDE4B2. The class given is biochemical. Particulars: cell lysate, [3H]cAMP SPA. As for the experimental part:
(§1) The enzyme was not purified from the cell lysates, so enzyme concentrations were not determined. Enzyme was stored in 50% glycerol at −20°.
(§2) IC50s were determined by Scintillation Proximity Assay (SPA). The principle of the assay is based on the fact that cAMP, the PDE4 substrate, binds weakly to Yittrium Silicate SPA beads, whereas AMP, the product of PDE4 hydrolysis binds strongly. Thus, the extent of PDE4 hydrolysis of a sample of [^3H]cAMP can be measured because only the [^3H]AMP produced by PDE4 hydrolysis will bind to the SPA beads and produce a scintillation signal.
(§3) In addition to the compound dilutions, each assay plate contained control wells with 1 μl of DMSO (to define 0% enzyme inhibition) or 1 μl of 200 μM roflumilast (to define 100% enzyme inhibition). Using a Beckman FX robot, 10 μl of [^3H] cAMP (Amersham TRK559) at […] in assay buffer (50 mM Tris, pH 7.5; 8.3 mM MgCl; 1.7 mM EGTA; 0.01% BSA) was transferred to each assay well. Next, 10 μl of PDE4 enzyme in assay buffer was added and the plates were shaken for 30 s. at 1000 rpm to start the cAMP hydrolysis reaction. The concentrations of enzyme used were: PDE4B, 80 ng/ml; PDE4D, 4 ng/ml; PDE4B2, 2.5 μl of 50% glycerol stock/ml; PDE4D5 0.083 μl of 50% glycerol stock/ml. Assay plates were covered and incubated for 30 min. at 30° C. Reactions were stopped by robotic addition of 10 μl of 5 mg/ml SPA beads (Amersham RPNQ0013) in 18 mM ZnSO4. The assay plates were covered with clear plastic film, centrifuged for 1 min. at 1000 RPM to settle the SPA beads, and counted using a Wallac TriLux scintillation counter. IC50's were calculated from the raw assay data by non-linear regression curve fitting using the Assay Explorer software package from MDL.

Experiment [3] concerns the target T2, PDE4D5: full-length human PDE4D5 isozyme (Homo sapiens, UniProt Q08499).
T2 construct: made in house; host or cells: baculovirus infected insect cells (pFastBacHT)
Nature of the experiment: PDE4 IC50 determination by Scintillation Proximity Assay (SPA), full-length PDE4D5. The class given is biochemical. As to conditions: cell lysate, [3H]cAMP SPA. As for the experimental part: as §1, §2, §3

The target in experiment [4] is T3, PDE4B: catalytic domain of human PDE4B from S152-S528 (Homo sapiens, UniProt Q07343).
T3 construct: The catalytic domain of human PDE4B from S152-S528; His6 (N, cleaved yes); thrombin cleavage site (N, cleaved yes); made in house; host or cells: E. coli BL21 (DE3) RIL
Nature of the experiment: PDE4 IC50 determination by Scintillation Proximity Assay (SPA), PDE4B catalytic domain. The class given is biochemical. Particulars: [3H]cAMP SPA, 30 min at 30° C. As for the experimental part:
as §2
Enzyme was stored in 50% glycerol at −20°.
as §3
(In general: In a scintillation proximity assay essentially only radioactivity close to the scintillant gives light.)

T1 sequence (Q07343 with tags, fused parts or gaps isoform Q07343-2): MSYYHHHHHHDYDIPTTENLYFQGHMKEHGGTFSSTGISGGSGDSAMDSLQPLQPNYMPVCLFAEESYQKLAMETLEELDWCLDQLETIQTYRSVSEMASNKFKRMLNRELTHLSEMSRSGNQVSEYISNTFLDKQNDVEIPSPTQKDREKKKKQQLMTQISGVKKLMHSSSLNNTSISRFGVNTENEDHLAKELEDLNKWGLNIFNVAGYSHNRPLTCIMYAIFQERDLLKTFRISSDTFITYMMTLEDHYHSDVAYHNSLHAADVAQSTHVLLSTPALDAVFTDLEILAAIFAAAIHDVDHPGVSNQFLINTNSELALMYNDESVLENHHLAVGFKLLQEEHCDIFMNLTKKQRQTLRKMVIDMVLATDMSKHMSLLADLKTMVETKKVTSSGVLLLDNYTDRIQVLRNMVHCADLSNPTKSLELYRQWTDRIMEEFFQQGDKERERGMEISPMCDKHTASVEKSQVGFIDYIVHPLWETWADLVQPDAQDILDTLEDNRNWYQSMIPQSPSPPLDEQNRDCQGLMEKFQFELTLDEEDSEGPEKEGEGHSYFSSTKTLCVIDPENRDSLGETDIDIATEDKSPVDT
T3 sequence (Q07343 324-700): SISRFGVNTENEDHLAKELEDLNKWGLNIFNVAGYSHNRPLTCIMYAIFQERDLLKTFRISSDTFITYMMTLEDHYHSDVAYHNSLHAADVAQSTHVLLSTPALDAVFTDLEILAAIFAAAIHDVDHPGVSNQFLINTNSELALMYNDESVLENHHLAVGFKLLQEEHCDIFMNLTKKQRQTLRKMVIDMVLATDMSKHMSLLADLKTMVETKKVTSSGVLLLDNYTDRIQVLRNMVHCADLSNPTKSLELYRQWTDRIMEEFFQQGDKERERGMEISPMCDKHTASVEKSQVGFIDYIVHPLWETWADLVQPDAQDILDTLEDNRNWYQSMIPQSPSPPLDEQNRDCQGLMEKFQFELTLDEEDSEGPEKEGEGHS
T2 sequence (Q08499 with tags, fused parts or gaps isoform Q08499-6): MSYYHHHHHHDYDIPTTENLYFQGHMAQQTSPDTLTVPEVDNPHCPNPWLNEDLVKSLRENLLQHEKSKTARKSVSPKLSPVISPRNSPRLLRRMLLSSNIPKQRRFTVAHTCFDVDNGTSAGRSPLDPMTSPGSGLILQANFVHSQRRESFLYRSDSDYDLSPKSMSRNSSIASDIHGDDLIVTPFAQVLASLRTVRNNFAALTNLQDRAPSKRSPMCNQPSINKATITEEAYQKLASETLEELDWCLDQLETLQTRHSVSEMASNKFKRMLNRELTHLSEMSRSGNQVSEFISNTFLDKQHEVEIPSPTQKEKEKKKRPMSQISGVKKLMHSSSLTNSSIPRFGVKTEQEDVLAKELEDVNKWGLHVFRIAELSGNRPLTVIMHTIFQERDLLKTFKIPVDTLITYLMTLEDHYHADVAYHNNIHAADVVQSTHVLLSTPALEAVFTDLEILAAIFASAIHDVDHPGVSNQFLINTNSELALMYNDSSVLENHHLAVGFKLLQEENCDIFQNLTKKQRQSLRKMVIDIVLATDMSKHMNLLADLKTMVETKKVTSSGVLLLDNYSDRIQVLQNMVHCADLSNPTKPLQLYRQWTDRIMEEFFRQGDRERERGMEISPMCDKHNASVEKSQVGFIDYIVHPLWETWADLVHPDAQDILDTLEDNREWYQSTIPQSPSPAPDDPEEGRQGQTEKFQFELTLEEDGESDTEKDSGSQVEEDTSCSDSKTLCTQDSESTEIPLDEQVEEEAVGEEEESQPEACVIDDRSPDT

On to `COc1ccc(-c2cn(S(=O)(=O)c3ccc4ccccc4c3)c3ncccc23)cc1OC` [Compound 11, 3-(3,4-Dimethoxy-phenyl)-1-(naphthalene-2-sulfonyl)-1H-pyrrolo[2,3-b]pyridine], for which the IC50 (usually the concentration at which inhibition is half-maximal) in experiment [1] is no more than 10 µM; in experiment [2] it was less than 10 µM; in experiment [3] it was less than 10 µM; in experiment [4] it was less than 10 µM.
Consider `COc1ccc(-c2cn(C(=O)c3ccccc3OC)c3ncccc23)cc1OC` [Compound 68, [3-(3,4-Dimethoxy-phenyl)-pyrrolo[2,3-b]pyridin-1-yl]-(2-methoxyphenyl)-methanone], for which the IC50 was no more than 10 µM in experiment [1], less than 10 µM in experiment [2], less than 10 µM in experiment [3] and less than 10 µM in experiment [4].
`COc1ccc(-c2cn(C(C)=O)c3ncccc23)cc1OC` [Compound 67, 1-[3-(3,4-Dimethoxy-phenyl)-pyrrolo[2,3-b]pyridin-1-yl]-ethanone]: the half-maximal inhibitory concentration (IC50) in experiment [1] is no more than 10 µM; in experiment [2], less than 10 µM; in experiment [3] it was less than 10 µM; in experiment [4], less than 10 µM.
`COc1ccc(-c2cn(Cc3ccccc3)c3ncccc23)cc1OC` [Compound 75, 1-Benzyl-3-(3,4-dimethoxy-phenyl)-1H-pyrrolo[2,3-b]pyridine]: the IC50 is no more than 10 µM in experiment [1], less than 10 µM in experiment [2], less than 10 µM in experiment [3] and less than 10 µM in experiment [4].
For the compound `COc1ccc(-c2cn(C(=O)Nc3cccc([N+](=O)[O-])c3)c3ncccc23)cc1OC` [Compound 38, 3-(3,4-Dimethoxy-phenyl)-pyrrolo[2,3-b]pyridine-1-carboxylic acid (3-nitro-phenyl)-amide], the IC50 was greater than 10 µM in experiment [1], less than 10 µM in experiment [2], greater than 10 µM in experiment [3] and less than 10 µM in experiment [4].
As for `CCOc1cc([N+](=O)[O-])ccc1C(=O)n1cc(-c2ccc(OC)c(OC)c2)c2cccnc21` [Compound 54, [3-(3,4-Dimethoxy-phenyl)-pyrrolo[2,3-b]pyridin-1-yl]-(2-ethoxy-4-nitro-phenyl)-methanone], the IC50 in experiment [1] is greater than 10 µM; in experiment [2], less than 10 µM; in experiment [3], less than 10 µM; in experiment [4], less than 10 µM.
For `COc1ccc(-c2cn(S(=O)(=O)c3cccc(-c4cnco4)c3)c3ncccc23)cc1OC` [Compound 72, 3-(3,4-Dimethoxy-phenyl)-1-(3-oxazol-5-yl-benzenesulfonyl)-1H-pyrrolo[2,3-b]pyridine], the IC50 in experiment [1] was no more than 10 µM; in experiment [2], less than 10 µM; in experiment [3] it was less than 10 µM; in experiment [4], less than 10 µM.
On to `COc1ccc(-c2cn(S(=O)(=O)c3cccc4ccccc34)c3ncccc23)cc1OC` [Compound 16, 3-(3,4-Dimethoxy-phenyl)-1-(naphthalene-1-sulfonyl)-1H-pyrrolo[2,3-b]pyridine], for which the IC50 is no more than 10 µM in experiment [1], less than 10 µM in experiment [2], less than 10 µM in experiment [3] and less than 10 µM in experiment [4].
For `COc1ccc(-c2cn(C(=O)c3c(-c4ccccc4)cnc4ccccc34)c3ncccc23)cc1OC` [Compound 117, [3-(3,4-Dimethoxy-phenyl)-pyrrolo[2,3-b]pyridin-1-yl]-(3-phenyl-quinolin-4-yl)-methanone], the IC50 in experiment [1] is greater than 10 µM; in experiment [2], less than 10 µM; in experiment [3], less than 10 µM; in experiment [4] it was less than 10 µM.
As to `COc1ccc(-c2cn(Cc3ccccc3CS(=O)(=O)c3ccccc3)c3ncccc23)cc1OC` [Compound 74, 1-(2-Benzenesulfonylmethyl-benzyl)-3-(3,4-dimethoxy-phenyl)-1H-pyrrolo[2,3-b]pyridine], the IC50 in experiment [1] is no more than 10 µM; in experiment [2], less than 10 µM; in experiment [3] it was less than 10 µM; in experiment [4], less than 10 µM.
On to `COc1ccc(-c2cn(S(=O)(=O)c3cccc4cccnc34)c3ccccc23)cc1OC` [Compound 21, 8-[3-(3,4-dimethoxy-phenyl)-indole-1-sulfonyl]-quinoline], for which the IC50 in experiment [1] was no more than 10 µM; in experiment [2], less than 10 µM; in experiment [3], less than 10 µM; in experiment [4] it was less than 10 µM.
Turning to `COc1ccc(-c2cn(S(=O)(=O)c3csc4ccccc34)c3ncccc23)cc1OC` [Compound 91, 1-(Benzo[b]thiophene-3-sulfonyl)-3-(3,4-dimethoxy-phenyl)-1H-pyrrolo[2,3-b]pyridine], the IC50 in experiment [1] was greater than 10 µM; in experiment [2], less than 10 µM; in experiment [3] it was less than 10 µM; in experiment [4] it was less than 10 µM.
For `COc1ccc(-c2cn(S(=O)(=O)Cc3ccccc3)c3ncccc23)cc1OC` [Compound 8, 3-(3,4-dimethoxy-phenyl)-1-phenylmethanesulfonyl-1H-pyrrolo[2,3-b]pyridine], the IC50 in experiment [1] is no more than 10 µM; in experiment [2], less than 10 µM; in experiment [3], less than 10 µM; in experiment [4], less than 10 µM.
For `COc1ccc(-c2cn(C(=O)Nc3ccc(Cl)c(Cl)c3)c3ncccc23)cc1OC` [Compound 37, 3-(3,4-Dimethoxy-phenyl)-pyrrolo[2,3-b]pyridine-1-carboxylic acid (3,4-dichloro-phenyl)-amide], the IC50 in experiment [1] was no more than 10 µM; in experiment [2] it was less than 10 µM; in experiment [3], less than 10 µM; in experiment [4] it was less than 10 µM.
Turning to `COc1ccc(NC(=O)n2cc(-c3ccc(OC)c(OC)c3)c3cccnc32)cc1Cl` [Compound 27, 3-(3,4-Dimethoxy-phenyl)-pyrrolo[2,3-b]pyridine-1-carboxylic acid (3-chloro-4-methoxy-phenyl)-amide], the IC50 in experiment [1] is no more than 10 µM; in experiment [2], less than 10 µM; in experiment [3], less than 10 µM; in experiment [4], less than 10 µM.
In the case of `COc1ccc2c(c1)c(-c1ccc(OC)c(OC)c1)cn2S(=O)(=O)c1cccc2cccnc12` [Compound 92, 8-[3-(3,4-Dimethoxy-phenyl)-5-methoxy-indole-1-sulfonyl]-quinoline], the IC50 in experiment [1] is no more than 10 µM; in experiment [2] it was less than 10 µM; in experiment [3], less than 10 µM.
